The source of these data is patent publication US20180282323A1, “Mesoionic imidazole derivatives as insecticides” (BAYER CROPSCIENCE AKTIENGESELLSCHAFT, priority 2015, published 2018).

In series [1] the test system is Myzus persicae. Put plainly: Myzus persicae spray test (Chinese cabbage leaf discs). The series is classed as in vivo. The conditions noted are these: application rate 500 g/ha, after 6 days. The procedure:
Myzus persicae—Spray Test Solvent: 78 parts by weight of acetone • • 1.5 parts by weight of dimethylformamide Emulsifier: alkylaryl polyglycol ether
(§1) To produce a suitable active ingredient formulation, 1 part by weight of active ingredient is dissolved with the stated parts by weight of solvent and made up with water containing an emulsifier concentration of 1000 ppm until the desired concentration is attained. To produce further test concentrations, the formulation is diluted with emulsifier-containing water.
Discs of Chinese cabbage leaves (Brassica pekinensis) infested by all stages of the green peach aphid (Myzus persicae) are sprayed with an active ingredient formulation of the desired concentration.
After 6 days, the efficacy in % is determined. 100% means that all the aphids have been killed; 0% means that no aphids have been killed.

The nature of series [2]: log P by HPLC on reversed-phase column (EEC directive 79/831 Annex V.A8). The series is classed as physicochemical. The conditions noted are these: for log p: HPLC on reversed-phase column (footnote a); for log p a): HPLC on reversed-phase column. The gist of the method: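 Determined per EEC directive 79/831 Annex V.A8 by HPLC on a reversed-phase C18 column at 43° C.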
For the next series, the system named is Lucilia cuprina. Put plainly: Lucilia cuprina test. The settings on record: application rate 100 ppm, L1 larvae, after 2 days. Type of series: in vivo. The procedure:
Lucilia cuprina Test Solvent: dimethyl sulphoxide
To produce a suitable active ingredient formulation, 10 mg of active ingredient are mixed with 0.5 ml of dimethyl sulphoxide, and the concentrate is diluted with water to the desired concentration.
About 20 L1 larvae of the Australian sheep blowfly (Lucilia cuprina) are transferred into a test vessel containing minced horsemeat and the active ingredient formulation of the desired concentration.
After 2 days, the kill in % is determined. 100% means that all the larvae have been killed; 0% means that no larvae have been killed.

In the next series the test system is Diabrotica balteata. Put plainly: Diabrotica balteata spray test. The series is classed as in vivo. The conditions noted are these: application rate 160 μg/well, wheat grains with beetle larvae, after 7 days. The procedure: Diabrotica balteata—Spray Test Solvent: 78 parts by weight of acetone • • 1.5 parts by weight of dimethylformamide Emulsifier: alkylaryl polyglycol ether
as §1
Pre-swollen wheat grains (Triticum aestivum) are incubated in a multiwell plate filled with agar and a little water for one day (5 seed grains per cavity). The germinated wheat grains are sprayed with an active ingredient formulation of the desired concentration. Subsequently, each cavity is infected with 10-20 beetle larvae of Diabrotica balteata.
After 7 days, the efficacy in % is determined. 100% means that all wheat plants have grown as in the untreated, uninfected control; 0% means that no wheat plant has grown.

In series [3] the test system is Myzus persicae. Put plainly: Myzus persicae oral test. Type of series: in vivo. The conditions noted are these: application rate 20 ppm, oral uptake through parafilm, after 5 days. The gist of the method:
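Compound dissolved in acetone, diluted with water, then mixed into IPL41 insect medium with sugar in microtitre plates under parafilm. Mixed-population green peach aphids fed through the membrane; % mortality scored after 5 days (100% = all killed).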

Series [4] has as its system Myzus persicae. Put plainly: Myzus persicae spray test (bell pepper plants). Type of series: in vivo. The settings on record: application rate 100 ppm, after 6 days. The procedure:
Myzus persicae—Spray Test Solvent: 14 parts by weight of dimethylformamide Emulsifier: alkylaryl polyglycol ether
To produce a suitable active ingredient formulation, 1 part by weight of active ingredient is dissolved with the stated parts by weight of solvent and made up with water containing an emulsifier concentration of 1000 ppm until the desired concentration is attained. To produce further test concentrations, the formulation is diluted with emulsifier-containing water. If the addition of ammonium salts or/and penetrants is required, these are each added in a concentration of 1000 ppm to the formulation solution.
Bell pepper plants (Capsicum annuum) severely infested with the green peach aphid (Myzus persicae) are treated by spraying with the active ingredient formulation in the desired concentration.
After 6 days, the kill in % is determined. 100% means that all of the aphids have been killed; 0% means that none of the aphids have been killed.

A further series deals with Boophilus microplus. Put plainly: Boophilus microplus injection test. The series is classed as in vivo. The settings on record: application rate 20 μg/animal, assessed after 7 days by laying of fertile eggs. How it is done: Boophilus microplus—Injection Test Solvent: dimethyl sulphoxide
To produce a suitable active ingredient formulation, 10 mg of active ingredient are mixed with 0.5 ml of solvent and the concentrate is diluted with solvent to the desired concentration.
1 μl of the active ingredient solution is injected into the abdomen of 5 engorged adult female cattle ticks (Boophilus microplus). The animals are transferred into dishes and kept in a climate-controlled room.
Efficacy is assessed after 7 days by laying of fertile eggs. Eggs which are not visibly fertile are stored in a climate-controlled cabinet until the larvae hatch after about 42 days. An efficacy of 100% means that none of the ticks has laid any fertile eggs; 0% means that all the eggs are fertile.

Read-outs that look alike come from different tables or passages of the source.

As for `COCCOCC(=O)c1c([O-])n(Cc2cnc(Cl)s2)c2cccc[n+]12` [Example I-1-087], the efficacy in the series with Myzus persicae [1], in the series on Diabrotica balteata and in the series on Myzus persicae [3] was 100% each time. Also, the log p in series [2] is given as 1.38. The “efficacy (kill in %)” value in the series with Lucilia cuprina turned out to be 100%.
With `COCC(=O)c1c([O-])n(Cc2cnc(Cl)c(Cl)c2)c2cccc[n+]12` [Example I-1-179], the log p in series [2] came out at 1.66. In the series with Myzus persicae [3], this compound gave an efficacy of 100%. For the same compound, in the series on Myzus persicae [4], the “efficacy (kill in %)” value is 95%.
What is called chromatographic logP is lipophilicity estimated from chromatographic retention. A lower chromatographic logP goes with a more hydrophilic compound. Take `CCSCC(=O)c1c([O-])n(Cc2cnc(Cl)s2)c2cccc[n+]12` [Example I-1-028, 1-[(2-Chloro-1,3-thiazol-5-yl)methyl]-3-[(ethylsulphanyl)acetyl]-1H-imidazo[1,2-a]pyridin-4-ium-2-olate]: the efficacy came to 90% in the series with Myzus persicae [1] and 100% in the series on Diabrotica balteata. In addition, the chromatographic logP in series [2] and in series [2] (pH 2.7) was 1.99 in each case. Besides, the pest or weed control at 20 ppm with Myzus persicae [3] (Myzus persicae, 120 h, read-out: efficacy) is 100%.
Regarding `CCOCC(=O)c1c([O-])n(Cc2ccc(Cl)nc2)c2cccc(C)[n+]12` [Example I-1-114], the log p in series [2] was 1.47. Moreover, the efficacy in the series on Myzus persicae [3] worked out at 100%. Also, the “efficacy (kill in %)” value in the series with Myzus persicae [4] came to 85%.
Compound `CCOCC(=O)c1c([O-])n(Cc2ccc(Cl)nc2)c2ccc(C)c[n+]12` [Example I-1-113] displayed a log p in series [2] of 1.66. The compound further gave an efficacy in the series with Myzus persicae [3] of 100%. Besides, the “efficacy (kill in %)” value in the series on Myzus persicae [4] was 95%.
As to `CNC(=O)c1c([O-])n(C(C)c2ccc(Cl)nc2)c2cccc[n+]12` (centres unmarked) [Example I-1-246], the efficacy is on record as 90% with Myzus persicae [1], 100% in the series on Diabrotica balteata and 90% with Myzus persicae [3]. Besides, the “log p a)” value in series [2] amounted to 1.41.
On to `COCC(=O)c1c([O-])n(Cc2ccc(Cl)nc2)c2ccc(F)c[n+]12` [Example I-1-165], for which the efficacy is 90% in the series on Myzus persicae [1], 100% with Myzus persicae [3] and 100% in the series with Boophilus microplus. Also, the log p in series [2] worked out at 1.39.
For the compound `O=C(Nc1c(Cl)cccc1Cl)c1c([O-])n(Cc2cnc(Cl)s2)c2cccc[n+]12` [Example I-1-282], the efficacy was 90% with Myzus persicae [1], 100% in the series on Diabrotica balteata and 100% with Myzus persicae [3]. The “log p a)” value in series [2] is listed as 2.8.
In series [2], `O=C(CO)c1c([O-])n(Cc2cnc(Cl)s2)c2cccc[n+]12` [Example I-1-089] yielded a log p of 1.14. Further, in the series with Lucilia cuprina, the “efficacy (kill in %)” value is on record as 90%. This compound yielded an efficacy with Myzus persicae [3] of 100%.
As to `Cc1ccc[n+]2c(C(=O)COC(C)C)c([O-])n(Cc3cnc(Cl)s3)c12` [Example I-1-292], the efficacy in the series on Myzus persicae [1] came out at 90%; with Diabrotica balteata, 100%; in the series with Myzus persicae [3], 100%. In series [2], the “log p a)” value turned out to be 1.97.
For the compound `O=C(Nc1c(F)cccc1F)c1c([O-])n(Cc2cnc(Cl)s2)c2cccc[n+]12` [Example I-1-231], the “log p a)” value in series [2] is 2.43. Besides, the efficacy in the series on Diabrotica balteata and in the series with Myzus persicae [3] was 100% each time. In the series on Myzus persicae [4], the “efficacy (kill in %)” value amounted to 99%.
With `Cc1ccn(CC(=O)c2c([O-])n(Cc3cnc(Cl)s3)c3cccc[n+]23)n1` [Example I-1-012], the efficacy in the series with Myzus persicae [1] was 90%; with Myzus persicae [3] it was 100%; with Boophilus microplus, 100%. In series [2], this compound returned a log p of 1.63.
Compound `O=C(Cn1ccnc1Cl)c1c([O-])n(Cc2cnc(Cl)s2)c2cccc[n+]12` [Example I-1-046] had a log p in series [2] of 1.44. In addition, the efficacy with Myzus persicae [3] turned out to be 100%. The “efficacy (kill in %)” value in the series with Myzus persicae [4] is 95%.
Regarding `O=C(Nc1ncccc1F)c1c([O-])n(Cc2cnc(Cl)s2)c2cccc[n+]12` [Example I-1-284], the values for the efficacy with Myzus persicae [1], with Diabrotica balteata and in the series on Myzus persicae [3] were 90%, 80% and 100%, respectively. In series [2], the “log p a)” value stood at 1.68.
For `CC(=O)c1c([O-])n(Cc2ccc(Cl)nc2)c2cccc[n+]12` [Example I-1-036], the efficacy worked out at 90% with Myzus persicae [1], 100% in the series on Diabrotica balteata and 100% in the series on Myzus persicae [3]. This compound registered a log p in series [2] of 1.2.
For `CC(C)SCC(=O)c1c([O-])n(Cc2cnc(Cl)s2)c2cccc[n+]12` [Example I-1-027], the efficacy in the series on Myzus persicae [1], in the series with Diabrotica balteata and in the series with Myzus persicae [3] was 100% each time. The compound also gave a log p in series [2] of 2.27. The “efficacy (kill in %)” value in the series with Lucilia cuprina was determined as 90%.
Compound `COc1cnn(CC(=O)c2c([O-])n(Cc3cnc(Cl)s3)c3cccc[n+]23)c1` [Example I-1-013] gave a log p in series [2] of 1.58. The compound further displayed an efficacy in the series with Myzus persicae [3] of 100%. Besides, in the series on Myzus persicae [4], the “efficacy (kill in %)” value stood at 85%.
For `CSc1cnn(CC(=O)c2c([O-])n(Cc3cnc(Cl)s3)c3cccc[n+]23)c1` [Example I-1-044] the same measures were 1.97, 100% and 80%.
On to `O=C(Cn1cc(C(F)(F)F)cn1)c1c([O-])n(Cc2cnc(Cl)s2)c2cccc[n+]12` [Example I-1-045], for which the log p in series [2] was 2.37. In addition, the results for the efficacy with Diabrotica balteata and in the series on Myzus persicae [3] were 80% and 100%, respectively. The “efficacy (kill in %)” value in the series on Myzus persicae [4] turned out to be 95%.
For the compound `COCC(=O)c1c([O-])n(Cc2ccc(Cl)nc2)c2c(C)ccc[n+]12` [Example I-1-193], the log p in series [2] was 1.38. The compound also returned an efficacy with Myzus persicae [3] of 100%. For the same compound, the “efficacy (kill in %)” value with Myzus persicae [4] came to 100%.
As for `O=C(Nc1ccccc1)c1c([O-])n(Cc2cnc(Cl)s2)c2cccc[n+]12` [Example I-1-145], in series [2], the log p is recorded as 2.73. Moreover, the “efficacy (kill in %)” value with Lucilia cuprina and with Myzus persicae [4] was 100% throughout. Further, the efficacy in the series on Diabrotica balteata and in the series on Myzus persicae [3] was 100% throughout.
For `O=C(Nc1ccc(F)cc1)c1c([O-])n(Cc2cnc(Cl)s2)c2cccc[n+]12` [Example I-1-227], in series [2], the “log p a)” value is 2.82. Besides, the efficacy in the series on Diabrotica balteata and with Myzus persicae [3] was 100% throughout. For the same compound, the “efficacy (kill in %)” value with Myzus persicae [4] stood at 99%.
For the compound `CC(=O)N(CC(=O)c1c([O-])n(Cc2cnc(Cl)s2)c2cccc[n+]12)C1CC1` [Example I-1-062], in series [2], the log p is listed as 1.58. The efficacy in the series on Myzus persicae [3] is 100%. Besides, the “efficacy (kill in %)” value in the series with Myzus persicae [4] amounted to 95%.
As for `O=C(Nc1c(F)cccc1Cl)c1c([O-])n(Cc2cnc(Cl)s2)c2cccc[n+]12` [Example I-1-283], the efficacy in the series with Myzus persicae [1], in the series with Diabrotica balteata and in the series on Myzus persicae [3] was 100% each time. Further, the “log p a)” value in series [2] is given as 2.57.
With `O=C(Cn1cc(Cl)cn1)c1c([O-])n(Cc2ccc(Cl)nc2)c2cccc[n+]12` [Example I-1-004], the values for the efficacy with Myzus persicae [1], in the series with Diabrotica balteata and with Myzus persicae [3] were 90%, 100% and 100%, respectively. Also, the log p in series [2] worked out at 1.96.
Consider `Cc1ccc[n+]2c(C(=O)NC3(C#N)CC3)c([O-])n(Cc3ccc(Cl)nc3)c12` [Example I-1-252], for which the “log p a)” value in series [2] turned out to be 1.78. This compound had an efficacy with Myzus persicae [3] of 90%. Besides, the “efficacy (kill in %)” value in the series with Myzus persicae [4] stood at 95%.
